# How the values were obtained:
# [1] = test system: HeLa-PLS3 cells; assay: TUNEL apoptosis assay with flow cytometry; assay type: cell-based; conditions: 200 nM PMA, 2 hours
# Procedure: (§1) Apoptotic assays were performed with annexinV-PE (BD-PharMingen) per manufacturer's protocol. The TUNEL assay (terminal deoxynucleotidyltransferase-mediated dUTP-biotin nick end labeling) was performed according to the manufacturer's protocol (Roche, Switzerland).
# (§2) If PLS3 is a direct downstream effector of PKC-δ in the PKC-δ-induced apoptotic pathway, then overexpression of PLS3 might enhance apoptosis induced by PKC-δ activation. HeLa-PLS3 were incubated with phorbol ester PMA, and analyzed for apoptosis with TUNEL assay and flow cytometry.
# [2] = test system: HeLa-control cells; assay: TUNEL apoptosis assay with flow cytometry; assay type: cell-based; conditions: 200 nM PMA, 2 hours
# Procedure: as §1, §2
# [3] = test system: HEK293 cells; assay: UV-induced cytochrome c release, subcellular fractionation and Western blot; assay type: cell-based
# Procedure: Subcellular fractionation was performed by differential centrifugation. In brief, […] were incubated in buffer containing 300 mM sucrose, 10 mM Tris (pH 7.5), 5 mM EDTA, 0.1% BSA and 1 mM PMSF protease inhibitor for 5 min on ice. Cells were disrupted by passage through a 25 G needle or dounced for 10 strokes, and then were centrifuged at 1000×g for 5 minutes, 10,000×g for 10 minutes, and 30,000×g for 60 minutes, for collection of intact cells/nuclei, crude mitochondria and microsomes, respectively. The final supernatants were used as cytosols. The mitochondria and the cytosolic fractions were analyzed for cytochrome c release with Western blot.
# The kinase that phosphorylates PLS3 was then sought. Based on the observation that PLS1 is phosphorylated by […], we studied whether PLS3 is the mitochondrial substrate of PKC-δ. It was first reconfirmed that PKC-δ is essential for UV-induced apoptosis by blocking PKC-δ with a PKC-δ inhibitor, rottlerin, in our system. The HEK293 cells were fractionated and the isolated mitochondria and cytosols were analyzed for cytochrome c release by Western blot. This study confirmed that cytochrome c was released to cytosol after UV irradiation, and this release was inhibited by rottlerin (FIG. 20b). […]
# [4] = test system: mouse liver mitochondria; assay: Cardiolipin transfer assay (NAO fluorescence); assay type: biochemical; conditions: 30 μM NAO, vs buffer or BSA control
# Source text: Cardiolipin was then investigated since cardiolipin is a mitochondrion-specific phospholipid and is potentially more critical in the process of apoptosis. Because radioactive cardiolipin is not commercially available, NAO was used to quantify cardiolipin in the recipient mitochondria. NAO binds cardiolipin specifically without interference by other phospholipids with a stoichiometry of 1 to 1 or 2 to 1. To achieve maximal NAO saturation, the recipient mitochondria were permeablized and fixed with formaldehyde. A dose titration of NAO was then performed. The red fluorescence achieved a plateau when the NAO concentrations were above 20 μM as reported (Garcia Fernandez et al. 2000). The concentration of 30 μM was thus chosen to determine the total amount of cardiolipin after in vitro cardiolipin transfer assay. […]
# Phospholipid transfer assay was modified from Koumanov et al. (Koumanov and Infante 1986). […] Mitochondria were then washed five times with mitochondrial preparation buffer to remove free liposomes and counted by scintillation counter for ^14C activity. For cardiolipin transfer assays, total amounts of cardiolipin were quantified by specific fluorescence with NAO dye. NAO (30 μM) was added to recipient mitochondria, and fluorescence intensity was measured at 590±35 nm by fluorescence microplate reader.
# [5] = test system: 293-vector cells; assay: Mitochondrial potential by Rhodamine 123 flow cytometry; assay type: cell-based; conditions: antimycin A for 6 h
# Procedure: FIG. 14. Overexpression of mutant PLS3 reduces mitochondrial mass, potential, and cytochrome c and CL content. […] C. […] The blot was re-probed with antibodies to VDAC and tubulin for controls. […] Error bars, SDs from five independent measurements. E. Quantitative PCR analysis of mitochondrial NADH dehydrogenase in 400 ng of whole cell genomic DNA. […] The crossing points (in cycle numbers) of the three cells are indicated.
compound,measurement,setting,value
CCCCCCCCCCCCCC(=O)O[C@@H]1[C@@H](C)[C@@]2(O)[C@@H](C=C(CO)C[C@]3(O)C(=O)C(C)=C[C@@H]23)[C@@H]2C(C)(C)[C@]12OC(C)=O [PMA],apoptosis (TUNEL),[1],shifted the curve to right
same,apoptosis (TUNEL),[2],did not induce any apoptosis
CC(=O)c1c(O)c(C)c(O)c(Cc2c(O)c3c(c(C(=O)/C=C/c4ccccc4)c2O)OC(C)(C)C=C3)c1O [rottlerin],amount of PKC-δ translocated to mitochondria,"[3]; UV plus rottlerin, washed mitochondria, 100 nM PMA, cytochrome c release",decreased
same,cytochrome c release to cytosol after UV irradiation,"[3]; rottlerin 10 μM, harvested 4 hours after UV",inhibited
"PLS3: Recombinant phospholipid scramblase 3 protein; purified PLS3β in transfer assay, His-tagged PLS3 in kinase assay",increase of total amount of cardiolipin in recipient mitochondria,[4],35%
antimycin A,mitochondrial potential (Rhodamine 123),[5],decrease of mitochondrial potential

# Source: patent US20060172958A1, “Phospholipid scramblase 3” (priority 2003, published 2006)
